Measured values: patent publication US20100041716A1, “[…] USE IN TREATING OR PREVENTING HYPERCHOLESTEROLEMIA” (MITOS PHARMACEUTICALS, INC., priority 2006, published 2010)

Assays:
[1] = system: NAD(P) dependent steroid dehydrogenase-like (NSDHL); experiment: Gene expression in white adipose tissue of mice, Affymetrix MOE430A 2.0 microarray; type: in vivo
Method: (§1) In a gene expression study, Tempol was administered to experimental mice at a dose of 5 g/kg of diet from 12 months through 15 months. Mice receiving the same diet without the addition of Tempol were used as a negative control. At the age of 15 months, the white adipose tissue of the experimental animals was obtained. The expression of a broad spectrum of genes in the adipose tissue was assessed using chip-based microarray technology. Specifically, in this case an Affymetrix MOE430A 2.0 array, containing 12,960 genes, was employed. Such chips are well known in the art and are widely used to assess gene expression.

[2] = system: farnesyl diphosphate synthase (FDPS); experiment: as above; type: in vivo
Method: as §1

[3] = system: lanosterol synthase (LSS); experiment: as above; type: in vivo
Method: as §1

[4] = system: LSS; experiment: Protein level in patient after Tempol treatment; type: in vivo, human; details: 1500 mg per day for 180 days
Method: (§2) A 70-kilogram patient having levels of fasting plasma total cholesterol indicative of hypercholesterolemia is administered a dose of 1500 mg of Tempol per day for 180 days. This may be administered in a single dose, or may be administered as a number of smaller doses over a 24-hour period: for example, three 500-mg doses at eight-hour intervals. Following treatment, the protein level of each of LSS, FDPS, and NSDHL is reduced.
(§3) A 70-kilogram patient at risk for developing hypercholesterolemia is administered a dose of 1500 mg of Tempol per day for 180 days. This may be administered in a single dose, or may be administered as a number of smaller doses over a 24-hour period: for example, three 500-mg doses at eight-hour intervals. Following treatment, the protein level of each of LSS, FDPS, and NSDHL is reduced.

[5] = system: NSDHL; experiment: Protein level in patient after Tempol treatment; type: in vivo, human; details: 1500 mg per day for 180 days
Method: as §2, §3

[6] = system: FDPS; experiment: Protein level in patient after Tempol treatment; type: in vivo, human; details: 1500 mg per day for 180 days
Method: as §2, §3

[7] = adipose tissue of mice treated with Tempol
[8] = Example 1: 70-kilogram patient with hypercholesterolemia
[9] = Example 2: 70-kilogram patient at risk for hypercholesterolemia

CC1(C)CC(O)CC(C)(C)N1[O] [Tempol, 4-hydroxy-2,2,6,6-tetramethylpiperidine-1-oxyl]
Fold change ([1]; NSDHL expression, Tempol-treated vs control mice, white adipose tissue): −1.64
Mean (Tempol-treated mice) ([1]; NSDHL expression, white adipose tissue, 5 g/kg of diet from 12 through 15 months): 1398
expression of NSHDL decreased [1, 7]: 1.64 fold
Fold change ([2]; FDPS expression, Tempol-treated vs control mice, white adipose tissue): −2.08
Mean (Tempol-treated mice) ([2]; FDPS expression, white adipose tissue, 5 g/kg of diet from 12 through 15 months): 1274
expression of FDPS decreased [2, 7]: 2.08 fold
Fold change ([3]; LSS expression, Tempol-treated vs control mice, white adipose tissue): −2.33
Mean (Tempol-treated mice) ([3]; LSS expression, white adipose tissue, 5 g/kg of diet from 12 through 15 months): 224
expression of LSS decreased [3, 7]: 2.33 fold
protein level of LSS [4, 8]: reduced
protein level of LSS [4, 9]: reduced
protein level of NSDHL [5, 8]: reduced
protein level of NSDHL [5, 9]: reduced
protein level of FDPS [6, 8]: reduced
protein level of FDPS [6, 9]: reduced
